# Tests used:
# Assay type in all cases: toxicity, cell-based
# Fibroblast = assay: Incucyte cell viability with human fibroblast; conditions: 10 µM, compound concentration 10 uM
# U2OS = assay: Incucyte cell viability with U2OS; conditions: human, 10 µM, compound concentration 10 uM
# HEK-293T = assay: Incucyte cell viability with HEK293T; conditions: human, 10 µM, compound concentration 10 uM
# [1] = 0 h, replicate number 1, timepoint 0 hours
# [2] = 6 h, replicate number 1, timepoint 6 hours
# [3] = 6 h, replicate number 2, timepoint 6 hours
# [4] = 12 h, replicate number 1, timepoint 12 hours
# [5] = 18 h, replicate number 1, timepoint 18 hours
# [6] = 24 h, replicate number 1, timepoint 24 hours
# [7] = 24 h, replicate number 2, timepoint 24 hours
# [8] = 18 h, replicate number 2, timepoint 18 hours
# [9] = 0 h, replicate number 2, timepoint 0 hours
# [10] = 12 h, replicate number 2, timepoint 12 hours
# Note: filed as whole numbers so only -1 and 0 and 1 occur.
SMILES,Growth Rate (Fibroblast; [1]),Growth Rate (Fibroblast; [2]),Growth Rate (Fibroblast; [3]),Growth Rate (Fibroblast; [5]),Growth Rate (Fibroblast; [6]),Growth Rate (Fibroblast; [7]),Growth Rate (U2OS; [1]),Growth Rate (U2OS; [3]),Growth Rate (U2OS; [4]),Growth Rate (U2OS; [5]),Growth Rate (U2OS; [6]),Growth Rate (U2OS; [7]),Growth Rate (HEK-293T; [9]),Growth Rate (HEK-293T; [2]),Growth Rate (HEK-293T; [4]),Growth Rate (HEK-293T; [10]),Growth Rate (HEK-293T; [5]),Growth Rate (HEK-293T; [6]),Growth Rate (U2OS; [10]),Growth Rate (Fibroblast; [10]),also measured
Cc1noc([C@H]2C[C@@H](c3ccc(C(F)(F)F)cc3)CN(C(=O)N3CCS(=O)(=O)C3)C2)n1 [BAY-448],0,1,0,0,0,1,0,1,1,0,0,1,0,0,0,1,0,0,,,Growth Rate (Fibroblast; [4]): 1; Growth Rate (U2OS; [8]): 1; Growth Rate (HEK-293T; [1]): 1; Growth Rate (HEK-293T; [3]): 1
O=C(O)C1CN(Cc2ccc(OCc3ccc(Cl)c(Cl)c3)cc2)C1,1,0,,0,0,,0,0,1,0,1,0,0,0,0,,0,0,0,,Growth Rate (Fibroblast; [4]): 0
Nc1ncnc2c1ccn2[C@@H]1O[C@H]([C@H](O)c2ccccc2)[C@@H](O)[C@H]1O,,,1,1,1,0,0,,0,0,0,1,1,1,,1,1,1,1,0,Growth Rate (Fibroblast; [9]): 0; Growth Rate (U2OS; [2]): 0; Growth Rate (U2OS; [8]): 1
CC1CCN(CC[C@H]2CCCN2S(=O)(=O)c2cccc(O)c2)CC1.Cl,0,1,,1,1,,0,1,1,1,1,,,1,1,0,1,1,,1,Growth Rate (HEK-293T; [1]): 0
Cl.Clc1cccc(COc2cncc(N3CCNCC3)n2)c1,1,1,0,,1,0,,0,0,1,1,,1,0,0,,0,0,1,0,Growth Rate (Fibroblast; [8]): 0
